# From patent US9958439B2, “Carbohydrate detection” (RICHTER LIFE SCIENCE DEVELOPMENT AB, priority 2012, dated 2018)
# Like-named read-outs stand apart in the source and are kept apart here.
# How the values were obtained:
# [1] = for RFU change (Correlation analysis): probe-specific excitation λ, emission 545 nm; for carbohydrate can be detected and/or differentiated by the LCO: conclusion from change in signal magnitude and/or shift in λmax
# Experimental: (§1) The excitation spectrum of the probe was analyzed for wavelengths 300-500 nm with emission read at 545 nm.
# (§2) 3 μM of each probe was applied to serial two fold dilutions of the insoluble carbohydrate. Respective probes were excited at wavelengths unique to each probe (specified in figure), and emission was read at 545 nm.
# (§3) Serial dilutions of carbohydrate suspensions were prepared in dH2O. Concentrations ranging from 10 to 0.039 mg/ml was used for β-1,3-glucan, cellulose and chitin, whereas 5 to 0.019 mg/ml was used for sodium alginate, glucose, amylose, glycogen, cellulobiose, heparin, chondroitin sulfate A. 3 μM of each LCO probe was added to 1 ml aliquots of each concentration of carbohydrate, after which 100 μl was dispensed in triplicates into 96 well plates. Excitation spectra were collected by exciting the sample from 300 to 500 nm and detecting emission at 545 nm. Detection of carbohydrate is concluded when there is a reproducible change in λmax and/or RFU intensity with reference to the negative control. Data from three concentrations, as well as the negative control are shown for each carbohydrate as specified in respective figure.
# (§4) The excitation wavelength (emission detected at 545 nm) selected for each LCO is either (1) the λmax, or (2) the excitation wavelength which suffers the lowest background. A linear regression analysis is performed to determine the relationship between the carbohydrate concentration and RFU.
# [2] = Experimental: 3 μM of each probe was applied to serial two fold dilutions of the insoluble carbohydrate of which the concentration shown here are 5 mg/ml (_.), 2.5 mg/ml (. . . ), 1.25 mg/ml (__) and 0 mg/ml (_). The excitation spectrum of the probe was analyzed for wavelengths 300-500 nm with emission read at 545 nm.
# as §2, §3, §4
# [3] = remark: listed apart in the source
# Experimental: (§5) 3 μM of each probe was applied to serial two fold dilutions of the carbohydrate of which the concentration shown here are 5 mg/ml (_.), 2.5 mg/ml (. . . ) 1.25 mg/ml (__) and 0 mg/ml (_). The excitation spectrum of the probe was analyzed for wavelengths 300-500 nm with emission read at 545 nm.
# 3 μM of each probe was applied to serial two fold dilutions of the carbohydrate. Respective probes were excited at wavelengths unique to each probe (specified in figure), and emission was read at 545 nm. […] The mean increase in signal (_) with [Glucose] and the fitted regression line (__) is shown.
# as §3, §4
# [4] = for RFU change (Correlation analysis): probe-specific excitation λ, emission 545 nm; for carbohydrate can be detected and/or differentiated by the LCO: conclusion from change in signal magnitude and/or shift in λmax; remark: listed apart in the source
# Experimental: as §5
# (§6) 3 μM of each probe was applied to serial two fold dilutions of the carbohydrate. Respective probes were excited at wavelengths unique to each probe (specified in figure), and emission was read at 545 nm.
# as §3, §4
# [5] = for RFU change (Correlation analysis): probe-specific excitation λ, emission 545 nm; for Gradient Parameters (gradient of regression line) / Linear relationship / Quality of Gradient: linear regression
# Experimental: 3 μM of each probe was applied to serial two fold dilutions of the carbohydrate of which the concentration shown here are 5 mg/ml (_.), 2.5 mg/ml (. . . ), 1.25 mg/ml (__) and 0 mg/ml (_). The excitation spectrum of the probe was analyzed for wavelengths 300-500 nm with emission read at 545 nm.
# as §6, §3, §4
# [6] = remark: listed apart in the source
# Experimental: as §1, §6, §3, §4
# [7] = Chitin 10-[…], 3 μM probe, spectral analysis, Excitation 300-500, Emission 545
# [8] = cellulose concentration vs RFU, linear regression
# [9] = chitin concentration vs RFU, linear regression
# [10] = β-1,3-glucan concentration vs RFU, linear regression
# [11] = sodium alginate concentration vs RFU, linear regression
# [12] = glucose concentration vs RFU, linear regression
# [13] = Cellulobiose 5-0.019 mg/ml, 3 μM probe, spectral analysis, Excitation 300-500, Emission 545
# [14] = amylose concentration vs RFU, linear regression
# [15] = cellulobiose concentration vs RFU, linear regression
# [16] = Glycogen 5-0.019 mg/ml, 3 μM probe, spectral analysis, Excitation 300-500, Emission 545
# [17] = Chondroitin Sulfate A 5-0.019 mg/ml, 3 μM probe, spectral analysis, Excitation 300-500, Emission 545
# [18] = Chondroitin Sulfate A concentration vs RFU, linear regression
smiles,measurement,setting,value
"O=C([O-])C[C@H](NC(=O)Cc1cc(-c2cccs2)sc1-c1ccc(-c2sc(-c3cccs3)cc2CC(=O)N[C@@H](CC(=O)[O-])C(=O)[O-])s1)C(=O)[O-].[Na+].[Na+].[Na+].[Na+] [pHTA-Asp, penta Hydrogen Thiophene Acetic acid Aspartic acid]",RFU change (Correlation analysis),"[1]; Cellulose 10-[…], 3 μM probe",Unclear
same,RFU change (Signal deviation with increasing [Carbohydrate]),"[1]; Cellulose 10-[…], 3 μM probe, spectral analysis, Excitation 300-500, Emission 545",Unclear
same,RFU change (Correlation analysis),"[1]; Chitin 10-[…], 3 μM probe",Increases
same,RFU change (Signal deviation with increasing [Carbohydrate]),[1]; [7],Increases
same,λmax change,[1]; [7],Redshift
same,carbohydrate can be detected and/or differentiated by the LCO,[1]; Chitin,can be detected and/or differentiated
same,Gradient Parameters (gradient of regression line),[1]; [8],12.3 ± 64.4
same,Quality of Gradient,[1]; [8],Horizontal
same,Gradient Parameters (gradient of regression line),[1]; [9],3138 ± 491.2
same,Linear relationship,[1]; [9],Significant
same,Quality of Gradient,[1]; [9],Positive
same,Sensitivity,[1]; to cellulose,No
same,Sensitivity,[1]; to chitin,Yes
same,Sensitivity,"[1]; to β-1,3-glucan",Yes
same,carbohydrate can be detected and/or differentiated by the LCO,"[1]; β-1,3-Glucan",can be detected and/or differentiated
same,RFU change (Correlation analysis),"[1]; β-1,3-glucan 10-[…], 3 μM probe",Decrease
same,RFU change (Signal deviation with increasing [Carbohydrate]),"[1]; β-1,3-glucan 10-[…], 3 μM probe, spectral analysis, Excitation 300-500, Emission 545",Decrease
same,Gradient Parameters (gradient of regression line),[1]; [10],−792.9 ± 97.3
same,Quality of Gradient,[1]; [10],Negative
same,RFU change (Correlation analysis),"[2]; Sodium alginate 5-0.019 mg/ml, 3 μM probe, probe-specific excitation λ, emission 545 nm",Unclear
same,RFU change (Signal deviation with increasing [Carbohydrate]),"[2]; Sodium alginate 5-0.019 mg/ml, 3 μM probe, spectral analysis, Excitation 300-500, Emission 545",Unclear
same,Gradient Parameters (gradient of regression line),[2]; [11],41.4 ± 59.6
same,Quality of Gradient,[2]; [11],Horizontal
same,Sensitivity,[2]; to sodium alginate,No
same,RFU change (Correlation analysis),"[3]; Glucose 5-0.019 mg/ml, 3 μM probe, probe-specific excitation λ, emission 545 nm",Increases
same,RFU change (Signal deviation with increasing [Carbohydrate]),"[3]; Glucose 5-0.019 mg/ml, 3 μM probe, spectral analysis, Excitation 300-500, Emission 545",Increases
same,carbohydrate can be detected and/or differentiated by the LCO,"[3]; Glucose, conclusion from change in signal magnitude and/or shift in λmax",can be detected and/or differentiated
same,Gradient Parameters (gradient of regression line),[3]; [12],625.1 ± 130.2
same,Linear relationship,[3]; [12],Significant
same,Quality of Gradient,[3]; [12],Positive
same,Sensitivity,[3]; to glucose,Yes
same,RFU change (Correlation analysis),"[4]; Amylose 5-0.019 mg/ml, 3 μM probe",Increases
same,RFU change (Signal deviation with increasing [Carbohydrate]),"[4]; Amylose 5-0.019 mg/ml, 3 μM probe, spectral analysis, Excitation 300-500, Emission 545",Increases
same,carbohydrate can be detected and/or differentiated by the LCO,[4]; Amylose,can be detected and/or differentiated
same,RFU change (Correlation analysis),"[4]; Cellulobiose 5-0.019 mg/ml, 3 μM probe",Increases
same,RFU change (Signal deviation with increasing [Carbohydrate]),[4]; [13],Increases
same,λmax change,[4]; [13],No change
same,carbohydrate can be detected and/or differentiated by the LCO,[4]; Cellulobiose,can be detected and/or differentiated
same,Gradient Parameters (gradient of regression line),[4]; [14],−7.6 ± 208.9
same,Quality of Gradient,[4]; [14],Horizontal
same,Linear relationship,[4]; [15],Significant
same,Quality of Gradient,[4]; [15],Positive
same,Sensitivity,[4]; to amylose,Yes
same,Sensitivity,[4]; to cellulobiose,Yes
same,RFU change (Correlation analysis),"[5]; Glycogen 5-0.019 mg/ml, 3 μM probe",Decreases
same,RFU change (Signal deviation with increasing [Carbohydrate]),[5]; [16],Decreases
same,λmax change,[5]; [16],Redshift
same,carbohydrate can be detected and/or differentiated by the LCO,"[5]; Glycogen, conclusion from change in signal magnitude and/or shift in λmax",can be detected and/or differentiated
same,RFU change (Correlation analysis),"[5]; Heparin 5-0.019 mg/ml, 3 μM probe",Unclear
same,RFU change (Signal deviation with increasing [Carbohydrate]),"[5]; Heparin 5-0.019 mg/ml, 3 μM probe, spectral analysis, Excitation 300-500, Emission 545",Unclear
same,Gradient Parameters (gradient of regression line),[5]; glycogen concentration vs RFU,−665.8 ± 88.9
same,Linear relationship,[5]; glycogen concentration vs RFU,Significant
same,Quality of Gradient,[5]; glycogen concentration vs RFU,Negative
same,Gradient Parameters (gradient of regression line),[5]; heparin concentration vs RFU,−3.2 ± 49.3
same,Linear relationship,[5]; heparin concentration vs RFU,Not Significant
same,Quality of Gradient,[5]; heparin concentration vs RFU,Horizontal
same,Sensitivity,[5]; to glycogen,Yes
same,Sensitivity,[5]; to heparin,No
same,RFU change (Correlation analysis),"[6]; Chondroitin Sulfate A 5-0.019 mg/ml, 3 μM probe, probe-specific excitation λ, emission 545 nm",Unclear
same,RFU change (Signal deviation with increasing [Carbohydrate]),[6]; [17],Unclear
same,λmax change,[6]; [17],No change
same,Gradient Parameters (gradient of regression line),[6]; [18],−67.88 ± 90.0
same,Quality of Gradient,[6]; [18],Horizontal
same,Sensitivity,[6]; to Chondroitin Sulfate A,No
